Laboratory results as given in US20260374766A1, “METHODS FOR TREATING CANCER” (Antares Therapeutics, Inc., priority 2022, published 2026).
pIC50, pKd: −log10 of the molar value.

What was measured:
[1] = biological target: T1, p53 Y220C mutant protein (amino acid residues 94-293) (Homo sapiens, UniProt P04637, Y220C); assay: Surface Plasmon Resonance (SPR) assay, Kd_kinetic; assay type: binding; conditions: SPR, kinetic KD, p53 Y220C; read-out: SPR P53 Y220C KD kinetic
T1 construct: p53 Y220C mutant protein (amino acid residues 94-293)
In short: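 Kd values come from fitting sensorgrams to a 1:1 binding model. Sensorgrams were recorded on a Biacore 8K at 16 or 20 °C in pH 7.5 Tris buffer with 100 mM NaCl, 1 mM DTT, detergents and 1% DMSO.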

p53 Y220C = p53 Y220C (Homo sapiens, UniProt P04637, Y220C); assay: Luciferase Reporter Assay (Luc), p53 response element, NClH1299 cells with inducible p53 Y220C; assay type: cell-based; conditions: luciferase reporter, NClH1299 inducible p53 Y220C, 6 hour; for Emax: 10 uM tool compound as positive control; for AC50: read-out: Luc P53 Y220C AC50
In short: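 Doxycycline (0.5 ug/mL, 24 h) induces the mutant before a 6-hour compound treatment. Reporter activity is then quantified by One-Glo luminescence.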

[2] = biological target: T1, p53 Y220C mutant protein (amino acid residues 94-293); assay: Thermal Shift Assay (TSA), dTM; assay type: binding; conditions: thermal shift; for ΔTm at 10 µM: 10 uM compound, read-out: TSA P53 Y220C dTM (10 uM); for ΔTm at 100 µM: 100 uM compound, read-out: TSA P53 Y220C dTM (100 uM)
In short: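 TM is derived by fitting Sypro Orange melt curves (30 °C to 50 °C, 0.03 °C/second) to a Boltzmann two-state model. Beforehand, 5 μM p53 Y220C (94-293) sits with 10 μM or 100 μM compound for 3 hours at 20 °C in HEPES pH7.4 buffer containing 100 mM NaCl and 1% DMSO.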

H1299 p53 R273H = assay: Cell Proliferation Assay (CellTiter-Glo, CTG), H1299 p53 R273H (NClH1299-inducible p53 R273H); assay type: cell-based; conditions: Homo sapiens, NCI-H1299, 120 h, CellTiter-Glo, H1299 p53 R273H, 5 days
In short: (§1)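 Tet-One inducible p53 Y220C or R273H constructs were stably introduced into NCI-H1299 by lentiviral transduction; NUGC3 was used as is. Cells (250-500 per well) were exposed to compound for 5 days, then CellTiter-Glo was added for 10 min at room temperature and IC50 was calculated from luminescence.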

H1299 p53 Y220C = assay: Cell Proliferation Assay (CellTiter-Glo, CTG), H1299 p53 Y220C (NClH1299-inducible p53 Y220C); assay type: cell-based; conditions: Homo sapiens, NCI-H1299, 120 h, CellTiter-Glo, H1299 p53 Y220C, 5 days
In short: as §1

NUGC3 p53 Y220C = assay: Cell Proliferation Assay (CellTiter-Glo, CTG), NUGC3 p53 Y220C; assay type: cell-based; conditions: Homo sapiens, NUGC-3, 120 h, CellTiter-Glo, NUGC3 p53 Y220C, 5 days
In short: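 NClH1299 lines stably transduced with Tet-inducible p53 Y220C or R273H, plus NUGC3, were treated with compound for 5 days at 250-500 cells/well. IC50 derived from CellTiter-Glo luminescent signal after 10 min room-temperature incubation.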

Row | Compound | pKd [1] | Emax (p53 Y220C) [%] | AC50 (p53 Y220C) [nM] | ΔTm at 10 µM [2] [°C] | ΔTm at 100 µM [2] [°C] | pIC50 (H1299 p53 R273H) | pIC50 (H1299 p53 Y220C) | pIC50 (NUGC3 p53 Y220C)
1 | COc1ccc(S(C)(=O)=O)cc1NCC#Cc1nc2c(N[C@@H]3CCN(C)C[C@@H]3F)cccn2c1SC(F)(F)F [Example 84, (3S,4R)-3-fluoro-N-(2-{3-[(5-methanesulfonyl-2-methoxyphenyl)amino]prop-1-yn-1-yl}-3-[(trifluoromethyl)sulfanyl]imidazo[1,2-a]pyridin-8-yl)-1-methylpiperidin-4-amine] | > 8.00 | 80 to 90 | 1500 to 3000 | 5 to 10 | ≥ 10 | ≤ 5.00 | 5.52 to 5.82 | 5.52 to 5.82
2 | CCNC(=O)c1ccc(NCC#Cc2nc3c(N[C@@H]4CCN(C)C[C@@H]4F)cccn3c2SC(F)(F)F)c(OC)c1 [Example 85, N-ethyl-4-{[3-(8-{[(3S,4R)-3-fluoro-1-methylpiperidin-4-yl]amino}-3-[(trifluoromethyl)sulfanyl]imidazo[1,2-a]pyridin-2-yl)prop-2-yn-1-yl]amino}-3-methoxybenzamide] | > 8.00 | 80 to 90 | < 750 | – | ≥ 10 | 5.10 to 5.30 | > 6.12 | > 6.12
3 | COc1cc(C(=O)NC2CC2)ccc1NCC#Cc1nc2c(N[C@@H]3CCN(C)C[C@@H]3F)cccn2c1SC(F)(F)F [Example 86, N-cyclopropyl-4-{[3-(8-{[(3S,4R)-3-fluoro-1-methylpiperidin-4-yl]amino}-3-[(trifluoromethyl)sulfanyl]imidazo[1,2-a]pyridin-2-yl)prop-2-yn-1-yl]amino}-3-methoxybenzamide] | > 8.00 | 80 to 90 | < 750 | – | ≥ 10 | 5.10 to 5.30 | > 6.12 | > 6.12
4 | COc1cc(C(=O)N2CCC2)ccc1NCC#Cc1nc2c(N[C@@H]3CCN(C)C[C@@H]3F)cccn2c1SC(F)(F)F [Example 87, (3S,4R)—N-[2-(3-{[4-(azetidine-1-carbonyl)-2-methoxyphenyl]amino}prop-1-yn-1-yl)-3-[(trifluoromethyl)sulfanyl]imidazo[1,2-a]pyridin-8-yl]-3-fluoro-1-methylpiperidin-4-amine] | > 8.00 | 80 to 90 | < 750 | – | ≥ 10 | 5.00 to 5.10 | > 6.12 | > 6.12
5 | COc1cc(C(=O)N(C)C)ccc1NCC#Cc1nc2c(N[C@@H]3CCN(C)C[C@@H]3F)cccn2c1SC(F)(F)F [Example 88, 4-{[3-(8-{[(3S,4R)-3-fluoro-1-methylpiperidin-4-yl]amino}-3-[(trifluoromethyl)sulfanyl]imidazo[1,2-a]pyridin-2-yl)prop-2-yn-1-yl]amino}-3-methoxy-N, N-dimethylbenzamide] | > 8.00 | 80 to 90 | < 750 | ≥ 10 | ≥ 10 | 5.00 to 5.10 | > 6.12 | > 6.12
6 | COc1cc(C(=O)NC(C)C)ccc1NCC#Cc1nc2c(N[C@@H]3CCN(C)C[C@@H]3F)cccn2c1SC(F)(F)F [Example 89, 4-{[3-(8-{[(3S,4R)-3-fluoro-1-methylpiperidin-4-yl]amino}-3-[(trifluoromethyl)sulfanyl]imidazo[1,2-a]pyridin-2-yl)prop-2-yn-1-yl]amino}-N-isopropyl-3-methoxybenzamide] | > 8.00 | 80 to 90 | < 750 | – | ≥ 10 | 5.00 to 5.10 | > 6.12 | > 6.12
7 | CNC(=O)c1ccc(NCC#Cc2nc3c(N[C@@H]4CCN(C)C[C@@H]4F)cccn3c2CC(F)(F)F)c(OC)n1 [Example 92, 5-{[3-(8-{[(3S,4R)-3-fluoro-1-methylpiperidin-4-yl]amino}-3-(2,2,2-trifluoroethyl)imidazo[1,2-a]pyridin-2-yl)prop-2-yn-1-yl]amino}-6-methoxy-N-methylpyridine-2-carboxamide] | > 8.00 | 80 to 90 | < 750 | – | 5 to 10 | 5.10 to 5.30 | > 6.12 | > 6.12
8 | CNC(=O)c1ccc(NCC#Cc2nc3c(N[C@@H]4CCN(C)C[C@@H]4F)cccn3c2SC(F)(F)F)c(OC)n1 [Example 93, 5-{[3-(8-{[(3S,4R)-3-fluoro-1-methylpiperidin-4-yl]amino}-3-[(trifluoromethyl)sulfanyl]imidazo[1,2-a]pyridin-2-yl)prop-2-yn-1-yl]amino}-6-methoxy-N-methylpyridine-2-carboxamide] | > 8.00 | > 90 | < 750 | – | ≥ 10 | 5.10 to 5.30 | > 6.12 | > 6.12
9 | CNC(=O)c1ccc(NCC#Cc2nc3c(N[C@@H]4CCN(C)C[C@@H]4F)cccn3c2SC(F)(F)F)cn1 [Example 94, 5-{[3-(8-{[(3S,4R)-3-fluoro-1-methylpiperidin-4-yl]amino}-3-[(trifluoromethyl)sulfanyl]imidazo[1,2-a]pyridin-2-yl)prop-2-yn-1-yl]amino}-N-methylpyridine-2-carboxamide] | > 8.00 | > 90 | < 750 | ≥ 10 | ≥ 10 | ≤ 5.00 | > 6.12 | > 6.12
10 | COc1cc2c(cc1NCC#Cc1nc3c(N[C@@H]4CCN(C)C[C@@H]4F)cccn3c1SC(F)(F)F)CNC2=O [Example 96, 5-{[3-(8-{[(3S,4R)-3-fluoro-1-methylpiperidin-4-yl]amino}-3-[(trifluoromethyl)sulfanyl]imidazo[1,2-a]pyridin-2-yl)prop-2-yn-1-yl]amino}-6-methoxy-2,3-dihydroisoindol-1-one] | > 8.00 | 80 to 90 | < 750 | ≥ 10 | ≥ 10 | 5.10 to 5.30 | > 6.12 | > 6.12
11 | CNC(=O)c1ccc(NCC#Cc2nc3c(N[C@@H]4CCN(C)C[C@@H]4F)cccn3c2C(F)(F)F)c(OC)c1 [Example 97, 4-{[3-(8-{[(3S,4R)-3-fluoro-1-methylpiperidin-4-yl]amino}-3-(trifluoromethyl)imidazo [1,2-a]pyridin-2-yl)prop-2-yn-1-yl]amino}-3-methoxy-N-methylbenzamide] | 6.00 to 7.00 | < 70 | > 3000 | – | 5 to 10 | ≤ 5.00 | < 5.52 | < 5.52
12 | CNC(=O)c1ccc(NCC#Cc2nc3c(N[C@@H]4CCNC[C@@H]4F)cccn3c2SC(F)(F)F)c(OC)c1 [Example 100, 4-{[3-(8-{[(3S,4R)-3-fluoropiperidin-4-yl]amino}-3-[(trifluoromethyl)sulfanyl]imidazo[1,2-a]pyridin-2-yl)prop-2-yn-1-yl]amino}-3-methoxy-N-methylbenzamide] | > 8.00 | 80 to 90 | < 750 | ≥ 10 | ≥ 10 | 5.10 to 5.30 | > 6.12 | > 6.12
13 | CNC(=O)c1ccc(NCC#Cc2nc3c(N[C@@H]4CCOC[C@@H]4F)cccn3c2SC(F)(F)F)c(OC)c1 [Example 101, 4-{[3-(8-{[(3R,4R)-3-fluorooxan-4-yl]amino}-3-[(trifluoromethyl)sulfanyl]imidazo[1,2-a]pyridin-2-yl)prop-2-yn-1-yl]amino}-3-methoxy-N-methylbenzamide] | > 8.00 | 80 to 90 | < 750 | 5 to 10 | ≥ 10 | ≤ 5.00 | > 6.12 | > 6.12
14 | CNC(=O)c1ccc(NCC#Cc2nc3c(N[C@@H]4CNC[C@@H]4F)cccn3c2SC(F)(F)F)c(OC)c1 [Example 102, 4-{[3-(8-{[(3R,4S)-4-fluoropyrrolidin-3-yl]amino}-3-[(trifluoromethyl)sulfanyl]imidazo[1,2-a]pyridin-2-yl)prop-2-yn-1-yl]amino}-3-methoxy-N-methylbenzamide] | > 8.00 | 70 to 80 | < 750 | ≥ 10 | ≥ 10 | ≤ 5.00 | > 6.12 | > 6.12
